Results published in ChEMBL document CHEMBL5291721, “A preclinical secondary pharmacology resource illuminates target-adverse drug reaction associations of marketed drugs” (Nat Commun, 2023).

Legend:
[1] = biological target: Beta-1 adrenergic receptor (Homo sapiens, UniProt P08588); type: functional
[2] = biological target: T1, Muscarinic acetylcholine receptor M2 (Homo sapiens, UniProt P08172); type: functional, cell-based
T1 sequence (P08172 whole entry): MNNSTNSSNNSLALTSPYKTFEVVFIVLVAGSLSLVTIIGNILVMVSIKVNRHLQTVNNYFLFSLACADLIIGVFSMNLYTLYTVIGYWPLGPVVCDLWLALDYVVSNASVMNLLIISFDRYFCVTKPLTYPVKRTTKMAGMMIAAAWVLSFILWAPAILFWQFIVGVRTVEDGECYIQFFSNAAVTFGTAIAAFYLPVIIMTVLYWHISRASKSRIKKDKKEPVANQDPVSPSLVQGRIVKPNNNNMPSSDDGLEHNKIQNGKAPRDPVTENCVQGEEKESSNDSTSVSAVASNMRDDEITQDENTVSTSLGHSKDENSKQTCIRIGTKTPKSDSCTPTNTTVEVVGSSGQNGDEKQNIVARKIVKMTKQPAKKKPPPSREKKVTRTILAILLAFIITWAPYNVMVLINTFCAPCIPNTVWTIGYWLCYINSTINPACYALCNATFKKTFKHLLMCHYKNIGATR

D(1A) dopamine receptor [3] = biological target: T2, D(1A) dopamine receptor (Homo sapiens, UniProt P21728); type: functional, cell-based
T2 sequence (P21728 whole entry): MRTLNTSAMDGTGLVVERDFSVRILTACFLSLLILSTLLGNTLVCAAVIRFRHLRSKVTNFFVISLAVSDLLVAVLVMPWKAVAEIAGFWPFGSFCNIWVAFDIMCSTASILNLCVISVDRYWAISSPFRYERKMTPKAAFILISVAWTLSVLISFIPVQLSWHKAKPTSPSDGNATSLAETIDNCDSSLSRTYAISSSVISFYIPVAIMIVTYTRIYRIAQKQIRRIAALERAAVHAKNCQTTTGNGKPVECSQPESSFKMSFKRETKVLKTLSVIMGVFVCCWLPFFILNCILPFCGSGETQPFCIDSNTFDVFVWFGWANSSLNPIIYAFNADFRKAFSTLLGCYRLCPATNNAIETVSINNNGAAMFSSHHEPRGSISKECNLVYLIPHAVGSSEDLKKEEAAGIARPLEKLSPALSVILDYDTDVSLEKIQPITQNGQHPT

Histamine H1 receptor = Histamine H1 receptor (Homo sapiens, UniProt P35367)
Histamine H1 receptor, sequence (P35367 whole entry): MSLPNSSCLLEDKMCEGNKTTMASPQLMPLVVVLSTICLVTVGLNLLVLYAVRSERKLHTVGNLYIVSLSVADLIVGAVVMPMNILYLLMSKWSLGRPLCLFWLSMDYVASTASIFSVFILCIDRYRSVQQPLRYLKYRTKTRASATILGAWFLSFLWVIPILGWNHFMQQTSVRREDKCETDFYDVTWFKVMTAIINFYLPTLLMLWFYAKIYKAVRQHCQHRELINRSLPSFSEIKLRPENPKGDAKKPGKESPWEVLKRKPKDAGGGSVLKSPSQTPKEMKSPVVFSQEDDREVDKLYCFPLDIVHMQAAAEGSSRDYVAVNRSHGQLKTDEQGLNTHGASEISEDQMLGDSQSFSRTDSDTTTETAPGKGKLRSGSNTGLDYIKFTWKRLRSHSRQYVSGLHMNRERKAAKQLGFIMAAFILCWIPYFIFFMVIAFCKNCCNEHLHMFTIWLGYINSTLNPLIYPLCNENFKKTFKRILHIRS

[4] = biological target: T3, 5-hydroxytryptamine receptor 1A (Homo sapiens, UniProt P08908); type: functional, cell-based
T3 sequence (P08908 whole entry): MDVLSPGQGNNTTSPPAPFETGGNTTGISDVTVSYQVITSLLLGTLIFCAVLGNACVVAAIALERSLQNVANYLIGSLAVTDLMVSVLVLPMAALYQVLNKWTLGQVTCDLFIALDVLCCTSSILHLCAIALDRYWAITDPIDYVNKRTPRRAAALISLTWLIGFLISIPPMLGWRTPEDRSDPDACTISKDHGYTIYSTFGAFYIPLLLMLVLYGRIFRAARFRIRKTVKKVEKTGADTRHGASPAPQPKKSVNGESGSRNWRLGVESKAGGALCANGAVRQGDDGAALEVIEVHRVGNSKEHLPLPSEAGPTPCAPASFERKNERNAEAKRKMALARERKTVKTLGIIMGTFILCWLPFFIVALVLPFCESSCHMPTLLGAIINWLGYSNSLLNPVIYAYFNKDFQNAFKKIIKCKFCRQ

[5] = biological target: T4, 5-hydroxytryptamine receptor 2C (Homo sapiens, UniProt P28335)
T4 sequence (P28335 whole entry): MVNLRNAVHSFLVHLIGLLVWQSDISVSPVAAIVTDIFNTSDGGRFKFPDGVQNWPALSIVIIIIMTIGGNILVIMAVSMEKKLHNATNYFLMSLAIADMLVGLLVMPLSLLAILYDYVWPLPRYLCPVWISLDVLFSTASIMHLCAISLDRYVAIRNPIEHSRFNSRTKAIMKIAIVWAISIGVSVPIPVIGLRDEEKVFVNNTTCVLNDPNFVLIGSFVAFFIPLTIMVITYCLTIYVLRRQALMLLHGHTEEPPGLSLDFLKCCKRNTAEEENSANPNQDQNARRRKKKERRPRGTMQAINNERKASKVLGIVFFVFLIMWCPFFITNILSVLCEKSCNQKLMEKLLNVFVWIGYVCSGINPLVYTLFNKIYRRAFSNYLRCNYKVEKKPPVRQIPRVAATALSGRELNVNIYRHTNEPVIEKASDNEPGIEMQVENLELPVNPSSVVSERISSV

[6] = biological target: Kappa-type opioid receptor (Homo sapiens, UniProt P41145)
Kappa-type opioid receptor, sequence (P41145 whole entry): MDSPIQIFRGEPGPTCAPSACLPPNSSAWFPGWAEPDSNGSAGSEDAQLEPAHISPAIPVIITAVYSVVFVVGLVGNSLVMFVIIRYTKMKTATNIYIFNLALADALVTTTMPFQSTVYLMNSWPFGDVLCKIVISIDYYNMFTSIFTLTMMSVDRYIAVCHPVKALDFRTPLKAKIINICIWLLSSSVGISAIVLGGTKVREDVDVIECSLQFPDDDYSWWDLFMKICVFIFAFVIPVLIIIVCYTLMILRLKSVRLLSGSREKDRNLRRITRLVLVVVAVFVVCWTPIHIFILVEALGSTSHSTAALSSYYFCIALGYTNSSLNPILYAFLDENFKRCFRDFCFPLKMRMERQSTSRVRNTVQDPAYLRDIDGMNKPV

Mu-type opioid receptor = Mu-type opioid receptor (Homo sapiens, UniProt P35372); assay: biochemical; type: functional
Mu-type opioid receptor, sequence (P35372 whole entry): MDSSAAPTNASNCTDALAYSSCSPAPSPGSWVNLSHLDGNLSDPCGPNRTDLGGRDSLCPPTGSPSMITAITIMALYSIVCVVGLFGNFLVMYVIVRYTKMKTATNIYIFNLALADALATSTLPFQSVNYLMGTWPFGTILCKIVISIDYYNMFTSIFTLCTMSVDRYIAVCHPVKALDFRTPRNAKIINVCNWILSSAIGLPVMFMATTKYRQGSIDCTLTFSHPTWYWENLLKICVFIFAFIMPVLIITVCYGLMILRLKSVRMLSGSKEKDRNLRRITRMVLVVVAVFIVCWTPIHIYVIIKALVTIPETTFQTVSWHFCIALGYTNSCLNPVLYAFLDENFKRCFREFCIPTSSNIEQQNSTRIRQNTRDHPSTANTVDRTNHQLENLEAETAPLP

[7] = biological target: T5, Amine oxidase [flavin-containing] A (Homo sapiens, UniProt P21397); type: functional
T5 sequence (P21397 whole entry): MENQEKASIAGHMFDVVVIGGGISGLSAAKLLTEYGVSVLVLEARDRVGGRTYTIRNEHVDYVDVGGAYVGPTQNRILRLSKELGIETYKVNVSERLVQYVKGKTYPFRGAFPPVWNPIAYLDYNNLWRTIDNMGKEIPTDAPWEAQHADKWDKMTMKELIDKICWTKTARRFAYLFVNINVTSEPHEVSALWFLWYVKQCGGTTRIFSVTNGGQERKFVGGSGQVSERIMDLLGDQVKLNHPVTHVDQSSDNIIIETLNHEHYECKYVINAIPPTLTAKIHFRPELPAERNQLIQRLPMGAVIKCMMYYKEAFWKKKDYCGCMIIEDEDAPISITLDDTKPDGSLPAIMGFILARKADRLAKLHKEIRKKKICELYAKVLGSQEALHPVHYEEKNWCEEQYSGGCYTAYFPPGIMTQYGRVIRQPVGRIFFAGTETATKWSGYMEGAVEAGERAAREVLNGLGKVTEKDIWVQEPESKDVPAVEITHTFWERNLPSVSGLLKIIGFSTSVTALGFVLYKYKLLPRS

D(1A) dopamine receptor [8] = biological target: T2, D(1A) dopamine receptor
Cannabinoid receptor 1 = Cannabinoid receptor 1 (Homo sapiens, UniProt P21554)
Cannabinoid receptor 1, sequence (P21554 whole entry): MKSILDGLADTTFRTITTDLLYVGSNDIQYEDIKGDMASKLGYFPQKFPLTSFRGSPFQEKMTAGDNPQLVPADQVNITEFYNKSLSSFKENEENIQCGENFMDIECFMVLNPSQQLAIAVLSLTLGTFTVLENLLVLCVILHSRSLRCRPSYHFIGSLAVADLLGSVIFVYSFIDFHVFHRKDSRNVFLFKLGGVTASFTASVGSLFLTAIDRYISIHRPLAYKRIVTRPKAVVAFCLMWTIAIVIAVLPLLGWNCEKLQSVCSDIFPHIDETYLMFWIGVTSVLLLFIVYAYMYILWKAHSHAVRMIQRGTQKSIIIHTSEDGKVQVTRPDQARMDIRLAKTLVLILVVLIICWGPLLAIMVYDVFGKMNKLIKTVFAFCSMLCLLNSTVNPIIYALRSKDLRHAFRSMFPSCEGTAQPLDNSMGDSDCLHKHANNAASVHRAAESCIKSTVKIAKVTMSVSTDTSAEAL

Thromboxane A2 receptor = biological target: T6, Thromboxane A2 receptor (Homo sapiens, UniProt P21731)
T6 sequence (P21731 whole entry): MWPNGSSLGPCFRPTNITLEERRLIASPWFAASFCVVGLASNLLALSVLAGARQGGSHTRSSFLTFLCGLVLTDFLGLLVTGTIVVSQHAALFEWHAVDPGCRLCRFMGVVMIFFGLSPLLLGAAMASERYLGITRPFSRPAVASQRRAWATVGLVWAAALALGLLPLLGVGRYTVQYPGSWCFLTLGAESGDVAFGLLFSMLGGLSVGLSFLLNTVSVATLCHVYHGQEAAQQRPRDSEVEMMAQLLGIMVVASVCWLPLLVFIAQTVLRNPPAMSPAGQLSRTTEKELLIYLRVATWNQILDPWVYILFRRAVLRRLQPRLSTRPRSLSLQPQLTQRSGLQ

[9] = biological target: Voltage-dependent N-type calcium channel subunit alpha-1B (Rattus norvegicus, UniProt Q02294); type: functional
Voltage-dependent N-type calcium channel subunit alpha-1B, sequence (Q02294 whole entry): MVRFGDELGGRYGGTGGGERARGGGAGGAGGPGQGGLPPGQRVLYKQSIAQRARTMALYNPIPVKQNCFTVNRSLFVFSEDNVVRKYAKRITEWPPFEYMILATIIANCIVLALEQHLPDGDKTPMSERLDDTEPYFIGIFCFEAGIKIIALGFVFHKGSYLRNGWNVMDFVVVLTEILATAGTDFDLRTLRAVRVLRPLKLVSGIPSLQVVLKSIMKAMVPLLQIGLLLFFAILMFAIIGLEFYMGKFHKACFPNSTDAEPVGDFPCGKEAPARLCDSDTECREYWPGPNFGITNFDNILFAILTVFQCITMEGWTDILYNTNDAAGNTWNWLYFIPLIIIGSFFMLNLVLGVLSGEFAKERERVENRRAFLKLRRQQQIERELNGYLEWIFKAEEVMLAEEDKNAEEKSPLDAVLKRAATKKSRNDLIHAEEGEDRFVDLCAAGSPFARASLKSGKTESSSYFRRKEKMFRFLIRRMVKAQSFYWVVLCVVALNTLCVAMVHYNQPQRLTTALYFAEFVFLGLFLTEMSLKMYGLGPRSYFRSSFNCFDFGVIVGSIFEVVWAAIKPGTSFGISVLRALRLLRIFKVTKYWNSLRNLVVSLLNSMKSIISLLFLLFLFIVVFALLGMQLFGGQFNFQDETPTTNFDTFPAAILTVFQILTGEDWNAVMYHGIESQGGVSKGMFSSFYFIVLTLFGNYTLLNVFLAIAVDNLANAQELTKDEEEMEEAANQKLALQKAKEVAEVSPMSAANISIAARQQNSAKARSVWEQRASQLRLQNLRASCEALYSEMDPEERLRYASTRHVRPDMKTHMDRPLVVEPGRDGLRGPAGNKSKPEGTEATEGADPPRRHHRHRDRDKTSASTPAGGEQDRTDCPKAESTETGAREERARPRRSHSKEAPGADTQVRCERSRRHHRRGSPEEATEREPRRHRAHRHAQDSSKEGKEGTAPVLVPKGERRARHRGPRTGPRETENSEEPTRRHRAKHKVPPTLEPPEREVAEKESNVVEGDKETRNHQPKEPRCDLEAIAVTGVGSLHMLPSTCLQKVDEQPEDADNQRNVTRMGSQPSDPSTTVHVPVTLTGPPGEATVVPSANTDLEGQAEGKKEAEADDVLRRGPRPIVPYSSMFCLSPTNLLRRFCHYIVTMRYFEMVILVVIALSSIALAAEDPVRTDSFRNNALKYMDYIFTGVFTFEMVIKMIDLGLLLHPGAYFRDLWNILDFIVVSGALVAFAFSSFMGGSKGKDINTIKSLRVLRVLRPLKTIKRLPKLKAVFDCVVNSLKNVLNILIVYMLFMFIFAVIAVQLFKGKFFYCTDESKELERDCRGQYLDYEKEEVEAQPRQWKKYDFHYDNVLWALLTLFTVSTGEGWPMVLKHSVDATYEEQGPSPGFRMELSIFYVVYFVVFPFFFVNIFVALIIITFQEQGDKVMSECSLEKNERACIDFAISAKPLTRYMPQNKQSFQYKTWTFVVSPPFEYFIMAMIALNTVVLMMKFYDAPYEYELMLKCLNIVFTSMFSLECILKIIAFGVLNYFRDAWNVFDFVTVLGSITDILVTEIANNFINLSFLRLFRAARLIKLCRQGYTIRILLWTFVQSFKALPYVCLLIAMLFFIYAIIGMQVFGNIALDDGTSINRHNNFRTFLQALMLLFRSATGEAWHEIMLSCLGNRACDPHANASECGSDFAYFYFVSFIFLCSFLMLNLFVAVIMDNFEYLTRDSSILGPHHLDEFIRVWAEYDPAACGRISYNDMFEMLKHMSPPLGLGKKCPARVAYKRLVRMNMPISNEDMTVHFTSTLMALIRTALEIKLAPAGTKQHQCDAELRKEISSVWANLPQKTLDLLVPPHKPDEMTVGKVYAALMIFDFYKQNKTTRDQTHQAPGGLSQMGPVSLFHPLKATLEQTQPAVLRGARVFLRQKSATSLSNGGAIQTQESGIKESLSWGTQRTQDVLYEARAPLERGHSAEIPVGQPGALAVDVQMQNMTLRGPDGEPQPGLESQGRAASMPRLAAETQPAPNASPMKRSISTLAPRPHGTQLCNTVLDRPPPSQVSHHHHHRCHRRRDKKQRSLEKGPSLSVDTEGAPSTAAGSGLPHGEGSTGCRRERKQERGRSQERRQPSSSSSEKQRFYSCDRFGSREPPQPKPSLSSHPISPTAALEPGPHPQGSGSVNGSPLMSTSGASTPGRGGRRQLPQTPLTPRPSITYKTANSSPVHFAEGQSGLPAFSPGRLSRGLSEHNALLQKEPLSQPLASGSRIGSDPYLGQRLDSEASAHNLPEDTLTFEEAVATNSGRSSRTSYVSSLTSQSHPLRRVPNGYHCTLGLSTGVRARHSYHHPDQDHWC
Note: assay procedure not described here.

Beta-1 adrenergic receptor, sequence (P08588 whole entry): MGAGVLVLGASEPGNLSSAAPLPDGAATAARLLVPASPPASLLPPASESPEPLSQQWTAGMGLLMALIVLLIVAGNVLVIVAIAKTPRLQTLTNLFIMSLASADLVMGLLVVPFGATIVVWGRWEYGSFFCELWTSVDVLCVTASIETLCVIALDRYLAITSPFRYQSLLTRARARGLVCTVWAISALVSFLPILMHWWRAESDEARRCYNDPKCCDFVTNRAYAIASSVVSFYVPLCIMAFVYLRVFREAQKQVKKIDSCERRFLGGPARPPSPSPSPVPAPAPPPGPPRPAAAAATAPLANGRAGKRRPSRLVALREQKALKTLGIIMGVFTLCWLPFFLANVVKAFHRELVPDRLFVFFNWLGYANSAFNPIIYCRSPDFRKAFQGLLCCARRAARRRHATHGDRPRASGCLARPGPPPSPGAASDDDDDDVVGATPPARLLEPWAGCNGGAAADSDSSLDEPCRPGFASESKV

| Compound | AC50 [1] [µM] | AC50 [2] [µM] | AC50 (D(1A) dopamine receptor [3]) [µM] | AC50 (Histamine H1 receptor) [µM] | AC50 [4] [µM] | AC50 [5] [µM] | AC50 [6] [µM] | AC50 (Mu-type opioid receptor) [µM] | AC50 [7] [µM] | AC50 (D(1A) dopamine receptor [8]) [µM] | AC50 (Cannabinoid receptor 1) [µM] | AC50 (Thromboxane A2 receptor) [µM] | AC50 [9] [µM] |
| --- | --- | --- | --- | --- | --- | --- | --- | --- | --- | --- | --- | --- | --- |
| CC[C@@H](C(N)=O)N1CCCC1=O | > 30 | > 30 | > 30 | > 10 | > 30 | > 30 | > 30 | > 30 | > 30 | – | – | – | – |
| CCC(CC)(CC(=O)Nc1cccc(/C=C/c2nc(C3CCC3)cs2)c1)C(=O)O | 14 | – | – | – | – | – | – | – | – | – | – | – | – |
| CC(=O)c1ccc2c(c1)N(CCCN(C)C)c1ccccc1S2 [ACEPROMAZINE] | – | – | > 30 | – | – | – | – | – | – | – | – | – | – |
| Nc1ccncc1N [AMIFAMPRIDINE] | – | – | – | – | – | – | – | – | – | > 30 | – | – | – |
| CCCC1O[C@@H]2C[C@H]3[C@@H]4CCC5=CC(=O)C=C[C@]5(C)[C@H]4[C@@H](O)C[C@]3(C)[C@]2(C(=O)CO)O1 (stereo not given in full) [BUDESONIDE] | > 10 | > 10 | > 10 | – | > 10 | > 30 | > 10 | – | > 10 | – | > 10 | > 10 | – |
| C=CCN1C[C@H](C(=O)N(CCCN(C)C)C(=O)NCC)C[C@@H]2c3cccc4[nH]cc(c34)C[C@H]21 [CABERGOLINE] | > 10 | > 30 | 0.0367 | 6.8 | – | > 30 | > 10 | – | > 10 | – | – | > 10 | – |
| CN1CCN(C2=Nc3ccccc3Sc3ccc(Cl)cc32)CC1 [CLOTHIAPINE] | – | 6.7 | > 30 | 0.02 | – | 0.8 | > 30 | 11 | > 30 | – | – | – | – |
| CN(C)CCC=C1c2ccccc2C=Cc2ccccc21 [CYCLOBENZAPRINE] | > 10 | – | > 10 | 0.021 | > 10 | 0.88 | – | – | > 10 | – | > 10 | > 30 | > 10 |
| CCOc1ccc(Cc2cc([C@@H]3O[C@H](CO)[C@@H](O)[C@H](O)[C@H]3O)ccc2Cl)cc1 [DAPAGLIFLOZIN] | > 10 | – | – | > 10 | – | > 30 | > 10 | – | > 10 | – | > 10 | > 30 | > 10 |
| CN(C)CC/C=C1\c2ccccc2CSc2ccccc21 [DOTHIEPIN] | > 30 | 1.4 | > 30 | 0.019 | – | 1.6 | – | > 30 | – | – | – | > 30 | – |
| CC[C@H]1CN2CCc3cc(OC)c(OC)cc3[C@@H]2C[C@@H]1C[C@H]1NCCc2cc(OC)c(OC)cc21 [EMETINE] | > 30 | > 30 | > 30 | – | – | > 30 | > 30 | > 30 | > 30 | > 30 | – | > 30 | – |
| COc1ccc(C(=O)Nc2ccccc2CCC2CCCCN2C)cc1 (stereo not given) [ENCAINIDE] | > 10 | > 10 | > 10 | > 10 | > 10 | 0.81 | 3.6 | – | > 10 | – | > 10 | > 30 | > 10 |
| O=[N+]([O-])O[C@@H]1CO[C@H]2[C@@H]1OC[C@@H]2O [ISOSORBIDE MONONITRATE] | > 10 | > 10 | > 10 | > 10 | > 10 | > 30 | > 10 | – | > 10 | – | > 10 | > 30 | > 10 |
| Cc1cc(C)c(NC(=O)CN(CC(=O)O)CC(=O)O)c(C)c1Br [MEBROFENIN] | – | > 30 | > 30 | > 30 | – | > 30 | > 30 | > 30 | > 30 | > 30 | – | – | – |
| COc1cc2nc(N3CCN(C(=O)c4ccco4)CC3)nc(N)c2cc1OC [PRAZOSIN] | > 10 | > 10 | > 10 | – | – | > 30 | 4.94 | > 30 | > 10 | – | > 10 | > 30 | > 10 |
| O=[N+]([O-])c1cn2c(n1)OC[C@@H](OCc1ccc(OC(F)(F)F)cc1)C2 [PRETOMANID] | > 10 | – | – | > 10 | – | > 10 | > 10 | – | – | – | – | > 30 | > 10 |
| Cc1oc(=O)oc1CN1CCN(c2cc3c(cc2F)c(=O)c(C(=O)O)c2n3C(C)S2)CC1 (stereo not given) [PRULIFLOXACIN] | – | > 30 | > 30 | > 30 | – | > 30 | > 30 | > 30 | > 30 | > 30 | – | – | – |
| CCCCCNC(=N)N/N=C/c1c[nH]c2ccc(OC)cc12 [TEGASEROD] | 7.02 | > 10 | 0.34 | > 30 | 0.87 | 0.543 | 4.9 | > 30 | > 30 | – | 10 | 8.39 | – |
| COC1=C(OC)C(=O)C(C/C=C(\C)CC/C=C(\C)CC/C=C(\C)CC/C=C(\C)CC/C=C(\C)CC/C=C(\C)CC/C=C(\C)CC/C=C(\C)CC/C=C(\C)CCC=C(C)C)=C(C)C1=O [UBIDECARENONE] | – | > 30 | > 30 | > 30 | – | > 30 | > 30 | > 30 | > 30 | – | – | – | – |
| C=CCCCCCCCCC(=O)O [UNDECYLENIC ACID] | – | – | – | – | – | – | – | – | – | > 30 | – | – | – |
| CCOc1ccccc1OCC1CNCCO1 (stereo not given) [VILOXAZINE] | > 10 | > 10 | > 10 | > 10 | > 10 | – | > 10 | – | > 10 | – | > 10 | > 30 | > 10 |
| CN(C)CCc1c[nH]c2ccc(C[C@H]3COC(=O)N3)cc12 [ZOLMITRIPTAN] | > 30 | > 30 | > 30 | > 30 | – | > 30 | > 30 | > 30 | > 30 | – | – | – | – |
